Measured values reported in the NIST ThermoML archive (doi:10.1021/je800251v).
Numbers after ± are expanded uncertainties.

Details: Liquid

CCCC(=O)OCC [ethyl butanoate]
Details | mass density [kg/m3]
298.15 K, 100 kPa | 873.3 ± 0.8
298.15 K, 1000 kPa | 874.1 ± 0.9
298.15 K, 2000 kPa | 875 ± 0.9
298.15 K, 3000 kPa | 875.9 ± 0.9
298.15 K, 3100 kPa | 876 ± 0.9
298.15 K, 5000 kPa | 877.5 ± 1
298.15 K, 10000 kPa | 881.5 ± 1.2
298.15 K, 15000 kPa | 885.3 ± 1.3
298.15 K, 20000 kPa | 889 ± 1.4
298.15 K, 25000 kPa | 892.5 ± 1.6
298.15 K, 30000 kPa | 896.9 ± 1.7
298.15 K, 35000 kPa | 901.4 ± 1.8
303.15 K, 100 kPa | 868.1 ± 0.8
303.15 K, 1000 kPa | 868.9 ± 0.9
303.15 K, 2000 kPa | 869.8 ± 0.9
303.15 K, 3000 kPa | 870.7 ± 0.9
303.15 K, 3100 kPa | 870.7 ± 0.9
303.15 K, 5000 kPa | 872.4 ± 1
303.15 K, 10000 kPa | 876.5 ± 1.2
303.15 K, 15000 kPa | 880.4 ± 1.3
303.15 K, 20000 kPa | 884.1 ± 1.5
303.15 K, 25000 kPa | 887.8 ± 1.6
303.15 K, 30000 kPa | 892.3 ± 1.7
303.15 K, 35000 kPa | 896.9 ± 1.8
308.15 K, 100 kPa | 862.6 ± 0.8
308.15 K, 1000 kPa | 863.5 ± 0.9
308.15 K, 2000 kPa | 864.4 ± 0.9
308.15 K, 3000 kPa | 865.3 ± 1
308.15 K, 3100 kPa | 865.4 ± 1
308.15 K, 5000 kPa | 867.1 ± 1
308.15 K, 10000 kPa | 871.4 ± 1.2
308.15 K, 15000 kPa | 875.5 ± 1.4
308.15 K, 20000 kPa | 879.4 ± 1.5
308.15 K, 25000 kPa | 883.1 ± 1.7
308.15 K, 30000 kPa | 887.8 ± 1.8
308.15 K, 35000 kPa | 892.5 ± 1.9
313.15 K, 100 kPa | 857.3 ± 0.9
313.15 K, 1000 kPa | 858.2 ± 0.9
313.15 K, 2000 kPa | 859.1 ± 0.9
313.15 K, 3000 kPa | 860.1 ± 1
313.15 K, 3100 kPa | 860.2 ± 1
313.15 K, 5000 kPa | 861.9 ± 1.1
313.15 K, 10000 kPa | 866.3 ± 1.2
313.15 K, 15000 kPa | 870.5 ± 1.4
313.15 K, 20000 kPa | 874.5 ± 1.6
313.15 K, 25000 kPa | 878.4 ± 1.7
313.15 K, 30000 kPa | 883.2 ± 1.8
313.15 K, 35000 kPa | 888.1 ± 2
318.15 K, 100 kPa | 851.9 ± 0.9
318.15 K, 1000 kPa | 852.8 ± 0.9
318.15 K, 2000 kPa | 853.8 ± 1
318.15 K, 3000 kPa | 854.8 ± 1
318.15 K, 3100 kPa | 854.9 ± 1
318.15 K, 5000 kPa | 856.7 ± 1.1
318.15 K, 10000 kPa | 861.3 ± 1.3
318.15 K, 15000 kPa | 865.8 ± 1.4
318.15 K, 20000 kPa | 869.9 ± 1.6
318.15 K, 25000 kPa | 874.1 ± 1.8
318.15 K, 30000 kPa | 879 ± 1.9
318.15 K, 35000 kPa | 884.1 ± 2
323.15 K, 100 kPa | 846.7 ± 0.9
323.15 K, 1000 kPa | 847.4 ± 0.9
323.15 K, 2000 kPa | 848.4 ± 1
323.15 K, 3000 kPa | 849.5 ± 1
323.15 K, 3100 kPa | 849.6 ± 1
323.15 K, 5000 kPa | 851.7 ± 1.1
323.15 K, 10000 kPa | 856.7 ± 1.3
323.15 K, 15000 kPa | 861.1 ± 1.5
323.15 K, 20000 kPa | 865.4 ± 1.6
323.15 K, 25000 kPa | 869.4 ± 1.8
323.15 K, 30000 kPa | 874.5 ± 1.9
323.15 K, 35000 kPa | 879.7 ± 2.1
328.15 K, 100 kPa | 841.4 ± 0.9
328.15 K, 1000 kPa | 842 ± 0.9
328.15 K, 2000 kPa | 843.3 ± 1
328.15 K, 3000 kPa | 844.5 ± 1
328.15 K, 3100 kPa | 844.6 ± 1
328.15 K, 5000 kPa | 846.6 ± 1.1
328.15 K, 10000 kPa | 851.5 ± 1.3
328.15 K, 15000 kPa | 856.2 ± 1.5
328.15 K, 20000 kPa | 860.5 ± 1.7
328.15 K, 25000 kPa | 864.8 ± 1.9
328.15 K, 30000 kPa | 870 ± 2
328.15 K, 35000 kPa | 875.3 ± 2.1
333.15 K, 100 kPa | 835.8 ± 0.9
333.15 K, 1000 kPa | 837 ± 1
333.15 K, 2000 kPa | 838.1 ± 1
333.15 K, 3000 kPa | 839.2 ± 1.1
333.15 K, 3100 kPa | 839.3 ± 1.1
333.15 K, 5000 kPa | 841.2 ± 1.1
333.15 K, 10000 kPa | 846.3 ± 1.3
333.15 K, 15000 kPa | 851.1 ± 1.5
333.15 K, 20000 kPa | 855.6 ± 1.7
333.15 K, 25000 kPa | 860.1 ± 1.9
333.15 K, 30000 kPa | 865.4 ± 2
333.15 K, 35000 kPa | 870.8 ± 2.2
338.15 K, 100 kPa | 830.3 ± 0.9
338.15 K, 1000 kPa | 831.5 ± 1
338.15 K, 2000 kPa | 832.6 ± 1
338.15 K, 3000 kPa | 833.8 ± 1.1
338.15 K, 3100 kPa | 833.9 ± 1.1
338.15 K, 5000 kPa | 835.9 ± 1.2
338.15 K, 10000 kPa | 841.2 ± 1.4
338.15 K, 15000 kPa | 846.2 ± 1.6
338.15 K, 20000 kPa | 850.8 ± 1.8
338.15 K, 25000 kPa | 855.5 ± 1.9
338.15 K, 30000 kPa | 861 ± 2.1
338.15 K, 35000 kPa | 866.5 ± 2.2
343.15 K, 100 kPa | 824.8 ± 1
343.15 K, 1000 kPa | 825.9 ± 1
343.15 K, 2000 kPa | 827.1 ± 1
343.15 K, 3000 kPa | 828.3 ± 1.1
343.15 K, 3100 kPa | 828.4 ± 1.1
343.15 K, 5000 kPa | 830.7 ± 1.2
343.15 K, 10000 kPa | 836.2 ± 1.4
343.15 K, 15000 kPa | 841.4 ± 1.6
343.15 K, 20000 kPa | 846.1 ± 1.8
343.15 K, 25000 kPa | 850.1 ± 2
343.15 K, 30000 kPa | 855.7 ± 2.2
343.15 K, 35000 kPa | 861.8 ± 2.3
348.15 K, 100 kPa | 819.1 ± 1
348.15 K, 1000 kPa | 820.3 ± 1
348.15 K, 2000 kPa | 821.6 ± 1.1
348.15 K, 3000 kPa | 822.9 ± 1.1
348.15 K, 3100 kPa | 823 ± 1.1
348.15 K, 5000 kPa | 825.1 ± 1.2
348.15 K, 10000 kPa | 830.9 ± 1.4
348.15 K, 15000 kPa | 836.2 ± 1.6
348.15 K, 20000 kPa | 841.1 ± 1.9
348.15 K, 25000 kPa | 846 ± 2
348.15 K, 30000 kPa | 851.8 ± 2.2
348.15 K, 35000 kPa | 857.7 ± 2.4
353.15 K, 100 kPa | 813.5 ± 1
353.15 K, 1000 kPa | 814.7 ± 1
353.15 K, 2000 kPa | 816.1 ± 1.1
353.15 K, 3000 kPa | 817.4 ± 1.2
353.15 K, 3100 kPa | 817.5 ± 1.1
353.15 K, 5000 kPa | 819.8 ± 1.2
353.15 K, 10000 kPa | 825.7 ± 1.5
353.15 K, 15000 kPa | 831.2 ± 1.7
353.15 K, 20000 kPa | 836.3 ± 1.9
353.15 K, 25000 kPa | 841.4 ± 2.1
353.15 K, 30000 kPa | 847.4 ± 2.3
353.15 K, 35000 kPa | 853.4 ± 2.4
363.15 K, 100 kPa | 799.9 ± 1
363.15 K, 1000 kPa | 801.4 ± 1.1
363.15 K, 2000 kPa | 803 ± 1.1
363.15 K, 3000 kPa | 804.5 ± 1.2
363.15 K, 3100 kPa | 804.7 ± 1.3
363.15 K, 5000 kPa | 807.9 ± 1.3
363.15 K, 10000 kPa | 814.4 ± 1.5
363.15 K, 15000 kPa | 820.7 ± 1.8
363.15 K, 20000 kPa | 826.7 ± 2
363.15 K, 25000 kPa | 832.4 ± 2.2
363.15 K, 30000 kPa | 837.7 ± 2.4
363.15 K, 35000 kPa | 842.7 ± 2.5
373.15 K, 100 kPa | 788.5 ± 1.1
373.15 K, 1000 kPa | 790.1 ± 1.1
373.15 K, 2000 kPa | 791.7 ± 1.2
373.15 K, 3000 kPa | 793.4 ± 1.2
373.15 K, 3100 kPa | 793.6 ± 1.2
373.15 K, 5000 kPa | 796.8 ± 1.3
373.15 K, 10000 kPa | 804 ± 1.6
373.15 K, 15000 kPa | 810.8 ± 1.8
373.15 K, 20000 kPa | 817.2 ± 2.1
373.15 K, 25000 kPa | 823.1 ± 2.3
373.15 K, 30000 kPa | 828.7 ± 2.5
373.15 K, 35000 kPa | 834 ± 2.7
383.15 K, 100 kPa | 776.9 ± 1.1
383.15 K, 1000 kPa | 778.6 ± 1.1
383.15 K, 2000 kPa | 780.4 ± 1.2
383.15 K, 3000 kPa | 782.2 ± 1.3
383.15 K, 3100 kPa | 782.4 ± 1.3
383.15 K, 5000 kPa | 785.5 ± 1.4
383.15 K, 10000 kPa | 793.5 ± 1.7
383.15 K, 15000 kPa | 800.8 ± 1.9
383.15 K, 20000 kPa | 807.5 ± 2.1
383.15 K, 25000 kPa | 813.8 ± 2.4
383.15 K, 30000 kPa | 819.6 ± 2.6
383.15 K, 35000 kPa | 825.2 ± 2.8
393.15 K, 100 kPa | 765.1 ± 1.1
393.15 K, 1000 kPa | 766.9 ± 1.2
393.15 K, 2000 kPa | 768.8 ± 1.2
393.15 K, 3000 kPa | 770.8 ± 1.3
393.15 K, 3100 kPa | 771 ± 1.3
393.15 K, 5000 kPa | 774.5 ± 1.4
393.15 K, 10000 kPa | 783.1 ± 1.7
393.15 K, 15000 kPa | 790.9 ± 2
393.15 K, 20000 kPa | 798 ± 2.2
393.15 K, 25000 kPa | 804.6 ± 2.5
393.15 K, 30000 kPa | 810.7 ± 2.7
393.15 K, 35000 kPa | 816.6 ± 2.9
